We go through 3 compounds from US20100260697A1, “Composition Containing An Extract of the Fruit of Schisandra Chinensis and Process for Producing Same” (COGNIS FRANCE S.A.S., priority 2003, published 2010).

Values joined by “and” are separate entries in the source; they are usually repeats but may differ in a detail not shown here. Identical values can stand only once.

Assay [1] deals with melanocytes B16. The assay is described as follows: Inhibition of melanin synthesis; whitening activity on melanocytes B16. Format: cell-based. The following applies: for Melanin / Proteins: % against control, 3 days. As for the experimental part: The whitening activity of the extract was evaluated on a cell line of melanocytes (melanocytes B16 were used; this is a cell line known to the skilled person in the art). The melanocytes were exposed to the extract for 3 days at 37° C. and then the melanocytes were homogenised in 1 n NaOH and the level of melanin was evaluated by measuring the optical density at 475 nm. The level of proteins in the cells was determined by Bradford's method.
The results are expressed in % refering of the control and the whitening potential is characterised by the ratio of melanin level by the protein level (or melanin/protein) for a non toxic concentration of the tested compound.

Assay [2] has as its system human fibroblasts. Description: Protection of human fibroblasts against UV-A radiation (released MDA, cellular proteins). The assay is classed as cell-based. The following applies: % versus non-irradiated control; UV-A 20 J/cm2; dose 0.0003 % w/v. The method, then:
The aim of this test is to evaluate the capacities against oxidative stress of the extract by a test on a cell culture of human fibroblasts in vitro. This test in vitro evaluates the capacities of cytophotoprotection of human fibroblasts against UV-A radiation. […] The formed lipoperoxydes split in malondialdehyde responsible of the reticulation of many biological molecules such as proteins (inhibition of enzymes) and nucleic bases (mutagenesis).
The fibroblasts were seeded in a defined culture medium with foetal calf serum (FCS). […] At the end of the irradiation, the level of MDA (malondialdehyde) was measured in the supernatant by a chemical reaction of MDA with thiobarbituric acid which produces a coloured compound the concentration of which was determined by measuring optical density and the level of proteins was measured in the cell homogenate by Bradford's method. Bradford's method is a known method to quantify the level of proteins (Bradford M M., A rapid and sensitive method for the quantification of microgram quantities of protein utilizing the principle of protein-dye binding. Anal. Biochem., Vol 72, pages 248 to 254, 1976).
The results are expressed as % versus the irradiated control or MDA, and the non-irradiated control for proteins then as an average value of 2 tests in triplicate: […]

With `OC[C@H]1O[C@@H](Oc2ccc(O)cc2)[C@H](O)[C@@H](O)[C@@H]1O` [Arbutin], in assay [1] (dose 0.2 % w/v), the Melanin is given as 54%, the Proteins was found to be 86% and the “Index = Proteins/Melanin” value stood at 1.60.
With `O=c1cc(CO)occ1O` [Kojic acid], in assay [1] (dose 0.03 % w/v), the Melanin was found to be 26%, the Proteins is on record as 89% and the “Index = Proteins/Melanin” value is reported as 3.37.
As to vitamin E, in assay [2], the “Cellular Proteins” value is 110% and 96%.
